Test system: Chilo suppressalis
Assay: Insecticidal activity against Chilo suppressalis, sprayed Oryza sativa seedlings, stalks fed to larvae
Assay type: in vivo
Conditions: parallel comparison test; for pest or weed control at 1 µg/mL / pest or weed control at 10 µg/mL: Chilo suppressalis, 72 h, 3 days after the treatment; for pest or weed control at 1 µg/mL: 1 mg/L, read-out: Lethality rate (%, 3 days after the treatment) 1 mg/L; for pest or weed control at 10 µg/mL: 10 mg/L, read-out: Lethality rate (%, 3 days after the treatment) 10 mg/L
Protocol: The compounds of the invention were determined for the insecticidal activities against several insects. The determination method was as follows:
After being dissolved in a mixed solvent of acetone/methanol (1:1), the test compound was diluted with water containing 0.1% (wt) Tween 80 to the desired concentration.
With Leucania separata, Plutella xylostella, and Chilo suppressalis as targets, airbrush spray method was used for the determination of activity.
Determination method: 1) Preparation of Oryza sativa seedlings: Oryza sativa was cultivated in a constant temperature room (a temperature of 26-28° C., a relative humidity of about 60-80%, and a light illumination of 16hL:8hD) in a small plastic cup with a diameter of 4.5 cm and a height of 4 cm, and when the Oryza sativa grew up to the 4-5 leaf stage, robust and consistent Oryza sativa seedlings were selected for chemical treatment, and 3 repetitions were performed for each treatment. 2) Preparation for test insects: Chilo suppressalis at 3rd instar larvae were raised continuously indoors. 3) The Oryza sativa stems were sprayed and insects were introduced. Spraying was performed uniformly on the whole plant of the Oryza sativa seedlings, with 15 ml of compound solution for each treatment. The blank control was treated first, and then the above operations were repeated in the order of the test concentration from low to high. After the Oryza sativa seedlings were sprayed, they were placed in a cool place to dry the liquid, and about 5 cm of stalks at the base of the stems were cut and fed to the test insects. A glass petri dish with a diameter of 90 mm was placed with filter paper at the bottom of the dish, and then was moisturized by adding water. After that, about 5 rice stalks and 10 larvae were placed in each dish, and the petri dish was sealed with a non-woven fabric and placed in a constant temperature room for cultivation. The number of remaining live insects was investigated 3 days after the treatment.
The compounds 1, 3, 7, 11 of this disclosure and the comparative compounds were selected for a parallel comparison test of the insecticidal activity against Chilo suppressalis (3 days after the treatment), through a same determination method as that described above.

Compound | pest or weed control at 1 µg/mL [%] | pest or weed control at 10 µg/mL [%] | Lethality rate (%, 3 days after the treatment) 0.25 mg/L [%] | Lethality rate (%, 3 days after the treatment) 0.5 mg/L [%]
O=C(Nc1c(Br)cc(C(F)(C(F)(F)F)C(F)(F)F)cc1C(F)(F)F)c1cccc(N(CC2CC2)C(=O)c2cccnc2)c1F [Compound 5-1] | 0 | 16.7 |  | 
N#Cc1ccc(C(=O)N(CC2CC2)c2cccc(C(=O)Nc3c(Br)cc(C(F)(C(F)(F)F)C(F)(F)F)cc3C(F)(F)F)c2F)cc1 [Compound 4-1] | 93.3 | 100 | 16.67 | 53.33
O=C(Nc1c(Br)cc(C(F)(C(F)(F)F)C(F)(F)F)cc1C(F)(F)F)c1cccc(N(CC2CC2)C(=O)c2ccc(Cl)nc2)c1F [Compound 5-2] | 33.3 | 70 |  | 0
O=C(Nc1c(Br)cc(C(F)(C(F)(F)F)C(F)(F)F)cc1C(F)(F)F)c1cccc(N(CC2CC2)C(=O)c2ccc(C(F)(F)F)cc2)c1F [Compound 3-1] | 56.7 | 100 | 0 | 26.67
O=C(Nc1c(Br)cc(C(F)(C(F)(F)F)C(F)(F)F)cc1C(F)(F)F)c1cccc(N(CC2CC2)C(=O)c2ccc(F)nc2)c1F [Compound 3] | 100 | 100 | 100 | 100
O=C(Nc1c(Br)cc(C(F)(C(F)(F)F)C(F)(F)F)cc1Br)c1cccc(N(CC2CC2)C(=O)c2cccnc2)c1F [Compound 1-2] | 0 | 0 |  | 
N#Cc1ccc(C(=O)N(CC2CC2)c2cccc(C(=O)Nc3c(Br)cc(C(F)(C(F)(F)F)C(F)(F)F)cc3C(F)(F)F)c2F)cn1 [Compound 11] | 100 | 100 | 100 | 100
O=C(Nc1c(Br)cc(C(F)(C(F)(F)F)C(F)(F)F)cc1C(F)(F)F)c1cccc(N(CC2CC2)C(=O)c2ccc(F)cc2)c1F [Compound 2-1] | 96.7 | 100 | 23.33 | 66.67
O=C(Nc1c(Br)cc(C(F)(C(F)(F)F)C(F)(F)F)cc1Br)c1cccc(N(CC2CC2)C(=O)c2ccc(F)cc2)c1F [Compound 1-1] | 50 | 100 | 0 | 13.33

Reference: patent US12509422B2, “Bisamide compound and application thereof” (METISA BIOTECHNOLOGY CO., LTD, priority 2019, dated 2025)
